# Target: BTK (Homo sapiens, UniProt Q06187)
# Experiment: biochemical
# Conditions: read-out: BTK inhibition (%)
# Sequence of BTK (Q06187 402-655 limits assumed): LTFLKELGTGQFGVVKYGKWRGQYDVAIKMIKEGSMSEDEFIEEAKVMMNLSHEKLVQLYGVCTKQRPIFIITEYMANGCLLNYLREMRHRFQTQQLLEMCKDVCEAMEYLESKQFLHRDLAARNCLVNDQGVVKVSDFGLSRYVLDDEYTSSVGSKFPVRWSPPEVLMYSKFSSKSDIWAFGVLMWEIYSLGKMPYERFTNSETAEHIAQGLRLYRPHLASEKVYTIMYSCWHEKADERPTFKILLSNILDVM
row,Compound,inhibition at 10 µM [%]
1,CCC1(c2cccc(O)c2)CCCCN(C)C1 (centres unmarked) [PCM-0086257],7.8

# Same assay, conditions: read-out: BTK inhibition (%), 0.75 uM BTK, […] probe 3l, 15 min preincubation
row,Compound,inhibition at 10 µM [%]
1,CO[C@H]1/C=C/O[C@@]2(C)Oc3c(C)c(O)c4c(O)c(c(/C=N/N5CCN(C6CCCC6)CC5)c(O)c4c3C2=O)NC(=O)/C(C)=C\C=C\[C@H](C)[C@H](O)[C@@H](C)[C@@H](O)[C@@H](C)[C@H](OC(C)=O)[C@@H]1C [PCM-0086116],43.6
2,CCCN(CCC)S(=O)(=O)c1ccc(C(=O)O)cc1 [PCM-0086122],-4.7
3,NCC1OC(OC2C(N)CC(N)C(OC3OC(CO)C(O)C(N)C3O)C2O)C(N)CC1O (centres unmarked) [PCM-0086125],21.3
4,NC[C@H]1O[C@H](O[C@H]2[C@H](O)[C@@H](O[C@H]3O[C@H](CO)[C@@H](O)[C@H](N)[C@H]3O)[C@H](N)C[C@@H]2N)[C@H](N)C[C@@H]1O [PCM-0086125],-14.5
5,CC(=O)[C@H]1CC[C@H]2[C@@H]3CC=C4C[C@@H](O)CC[C@]4(C)[C@H]3CC[C@]12C [PCM-0086127],-22.6
6,CC(=O)SCC(Cc1ccccc1)C(=O)NCC(=O)OCc1ccccc1 (centres unmarked) [PCM-0086128],3.1
7,CCOC(=O)[C@H](CCc1ccccc1)N[C@H]1CCc2ccccc2N(CC(=O)O)C1=O [PCM-0086130],-24.9
8,Clc1ccc(Nc2nnc(Cc3ccncc3)c3ccccc23)cc1 [PCM-0086134],-14.5
9,NC[C@H]1O[C@H](O[C@H]2[C@H](O)[C@@H](O[C@H]3O[C@H](CO)[C@@H](O)[C@H](N)[C@H]3O)[C@H](N)C[C@@H]2N)[C@H](O)[C@@H](O)[C@@H]1O [PCM-0086137],23.8
10,COc1cc([C@@H]2c3cc4c(cc3[C@@H](O[C@@H]3O[C@@H]5CO[C@@H](C)O[C@H]5[C@H](O)[C@H]3O)[C@H]3COC(=O)[C@H]23)OCO4)cc(OC)c1O [PCM-0086140],-2.8
11,CNCC[C@@H](Oc1ccccc1C)c1ccccc1 [PCM-0086150],11.7
12,CN1CCN2c3ncccc3Cc3ccccc3C2C1 (centres unmarked) [PCM-0086153],12.5
13,Cc1ccc(S(=O)(=O)NC(=O)NN2CC3CCCC3C2)cc1 (centres unmarked) [PCM-0086156],-2.3
14,O=c1[nH]c(=O)n([C@H]2C[C@H](O)[C@@H](CO)O2)cc1F [PCM-0086169],-3.9
15,CCOc1cc(CC(=O)N[C@@H](CC(C)C)c2ccccc2N2CCCCC2)ccc1C(=O)O [PCM-0086171],17.1
16,NC(=O)C(c1ccccc1)(c1ccccc1)[C@@H]1CCN(CCc2ccc3c(c2)CCO3)C1 [PCM-0086175],4.7
17,CC(C)(C#N)c1cc(Cn2cncn2)cc(C(C)(C)C#N)c1 [PCM-0086178],-11
18,Cc1cccc(C)c1NC(=O)C1CCCCN1C (centres unmarked) [PCM-0086182],3.4
19,CO[C@H]1/C=C/O[C@@]2(C)Oc3c(C)c(O)c4c(O)c(c5c(nc6cc(C)ccn65)c4c3C2=O)NC(=O)/C(C)=C\C=C\[C@H](C)[C@H](O)[C@@H](C)[C@@H](O)[C@@H](C)[C@H](OC(C)=O)[C@@H]1C [PCM-0086183],10.1
20,O=c1[nH]c(=O)n([C@H]2C[C@H](O)[C@@H](CO)O2)cc1C(F)(F)F [PCM-0086194],2.3
21,CN(Cc1cc(Br)cc(Br)c1N)C1CCCCC1 [PCM-0086201],29.6
22,C1N2CN3CN1CN(C2)C3 [PCM-0086204],-8.6
23,N#CC(c1ccc(Cl)cc1)c1c(Cl)cc(-n2ncc(=O)[nH]c2=O)cc1Cl (centres unmarked) [PCM-0086206],-0.8
24,COC(=O)Nc1nc2ccc([S+]([O-])c3ccccc3)cc2[nH]1 (centres unmarked) [PCM-0086213],17.9
25,Nc1ccc(O)c(C(=O)O)c1 [PCM-0086222],-9
26,O=C(CCCCCCC(=O)Nc1ccccc1)NO [PCM-0086223],-9
27,CCOc1nc2cccc(C(=O)O)c2n1Cc1ccc(-c2ccccc2-c2nn[nH]n2)cc1 [PCM-0086226],24.1

row,Compound,inhibition at 10 µM [%]
1,Nc1nc(F)nc2c1ncn2[C@@H]1O[C@H](CO)[C@@H](O)[C@@H]1O [PCM-0086227],-19.5
2,Nc1nc(Cl)nc2c1ncn2[C@H]1C[C@H](O)[C@@H](CO)O1 [PCM-0086228],-16.6
3,CCCc1nc(C)c2c(=O)[nH]c(-c3cc(S(=O)(=O)N4CCN(CC)CC4)ccc3OCC)nn12 [PCM-0086229],-10.9
4,OC(Cn1cncn1)(Cn1cncn1)c1ccc(F)cc1F [PCM-0086230],9.3
5,CCCc1cc(C(N)=S)ccn1 [PCM-0086237],-11.7
6,O=S(=O)(O)CCS [PCM-0086246],-3.1
7,CCn1cc(C(=O)O)c(=O)c2cc(F)c(N3CCNCC3)nc21 [PCM-0086249],4.7
8,CN(C)CC/C=C1/c2ccccc2COc2ccc(CC(=O)O)cc21 [PCM-0086250],8.3
9,CC1(C)O[C@@H]2[C@@H](CO[C@@]3(COS(N)(=O)=O)OC(C)(C)O[C@@H]23)O1 [PCM-0086260],-15.6
10,O=C1CCc2ccc(OCCCCN3CCN(c4cccc(Cl)c4Cl)CC3)cc2N1 [PCM-0086268],-10.9
11,C#C[C@]1(O)CC[C@H]2[C@@H]3CCc4cc(O)ccc4[C@H]3CC[C@@]21C [PCM-0086269],26.5
12,CC1(C)O[C@@H]2C[C@H]3[C@@H]4C[C@H](F)C5=CC(=O)C=C[C@]5(C)[C@@]4(F)[C@@H](O)C[C@]3(C)[C@]2(C(=O)CO)O1 [PCM-0086270],-17.1
13,C[C@@H]1CN(c2c(F)c(N)c3c(=O)c(C(=O)O)cn(C4CC4)c3c2F)C[C@H](C)N1 [PCM-0086271],2.3
14,CN(C)CCN(Cc1ccccc1)c1ccccn1 [PCM-0086274],12.8
15,COc1ncnc(NS(=O)(=O)c2ccc(N)cc2)c1OC [PCM-0086280],0.8
16,O=S(=O)(O)c1cc(O)ccc1O [PCM-0086281],3.9
17,C[C@]12CC[C@@H]3c4ccc(O)cc4CC[C@H]3[C@@H]1C[C@@H](O)[C@@H]2O [PCM-0086283],5.4
18,CCCCC[C@H](O)/C=C/[C@H]1[C@H](O)CC(=O)[C@@H]1CCCCCCC(=O)O [PCM-0086285],6.9
19,O=C(O)c1cn(-c2ccc(F)cc2)c2cc(N3CCNCC3)c(F)cc2c1=O [PCM-0086286],-3.4
20,Cc1cc(-n2c(=O)[nH]c(=O)n(C)c2=O)ccc1Oc1ccc(SC(F)(F)F)cc1 [PCM-0086289],-0.8
21,CCCCc1nc(Cl)c(CO)n1Cc1ccc(-c2ccccc2-c2nnn[nH]2)cc1 [PCM-0086291],-10.9
22,CN1[C@@H]2CC[C@H]1CC(OC(c1ccccc1)c1ccccc1)C2 (some centres unmarked) [PCM-0086292],-3.1
23,CCCc1nc2c(C)cc(-c3nc4ccccc4n3C)cc2n1Cc1ccc(-c2ccccc2C(=O)O)cc1 [PCM-0086294],-10.9
24,c1ccc(-c2ccc(C(c3ccccc3)n3ccnc3)cc2)cc1 (centres unmarked) [PCM-0086296],33.5
25,COC(=O)C1=C(C)NC(C)=C(C(=O)OC(C)C)C1c1cccc2nonc12 (centres unmarked) [PCM-0086297],-2.3
26,N#Cc1ccc(C(c2ccc(C#N)cc2)n2cncn2)cc1 [PCM-0086304],-2.1
27,OC[C@H]1O[C@@H](Oc2ccc(O)cc2)[C@H](O)[C@@H](O)[C@@H]1O [PCM-0086306],-6.2

row,Compound,inhibition at 10 µM [%]
1,CCOC(=O)[C@H](CCc1ccccc1)N[C@@H](C)C(=O)N1[C@H](C(=O)O)C[C@@H]2CCC[C@@H]21 [PCM-0086308],-3.9
2,Cc1nc2n(c(=O)c1CCN1CCC(c3noc4cc(F)ccc34)CC1)CCCC2 [PCM-0086311],1.7
3,Cc1cccc(Nc2ccncc2S(=O)(=O)NC(=O)NC(C)C)c1 [PCM-0086313],-4.3
4,COc1c(N2CCNC(C)C2)c(F)cc2c(=O)c(C(=O)O)cn(C3CC3)c12 (centres unmarked) [PCM-0086315],-40.5
5,COc1ccccc1Oc1c(NS(=O)(=O)c2ccc(C(C)(C)C)cc2)nc(-c2ncccn2)nc1OCCO [PCM-0086316],-7.8
6,CCCc1nc(C(C)(C)O)c(C(=O)OCc2oc(=O)oc2C)n1Cc1ccc(-c2ccccc2-c2nn[nH]n2)cc1 [PCM-0086318],0.8
7,CC(C)Cn1cnc2c(N)nc3ccccc3c21 [PCM-0086321],-2.6
8,CCCNC(C)C(=O)Nc1c(C)csc1C(=O)OC (centres unmarked) [PCM-0086324],-13.2
9,CNNCc1ccc(C(=O)NC(C)C)cc1 [PCM-0086325],-17.9
10,Cn1c([N+](=O)[O-])cnc1COC(N)=O [PCM-0086329],-12.5
11,CCN[C@H]1C[C@H](C)S(=O)(=O)c2sc(S(N)(=O)=O)cc21 [PCM-0086331],10.2
12,CC1CCc2c(N3CCC(O)CC3)c(F)cc3c(=O)c(C(=O)O)cn1c23 (centres unmarked) [PCM-0086338],1.6
13,COc1ccc(C[C@@H](C)NC[C@H](O)c2ccc(O)c(NC=O)c2)cc1 [PCM-0086341],7
14,COc1cc2ncnc(Nc3ccc(F)c(Cl)c3)c2cc1OCCCN1CCOCC1 [PCM-0086349],2.1
15,O=C(NC(Cc1cc(=O)[nH]c2ccccc12)C(=O)O)c1ccc(Cl)cc1 (centres unmarked) [PCM-0086359],4.7
16,COC(=O)C1=C(C#N)NC(C)=C(C(=O)OC(C)C)C1c1cccc([N+](=O)[O-])c1 (centres unmarked) [PCM-0086361],14.8
17,Nc1ccc(S(N)(=O)=O)cc1 [PCM-0086364],-9.3
18,O=C(O)c1cccnc1 [PCM-0086368],3.1
19,CNC[C@H](O)[C@@H](O)[C@H](O)[C@H](O)CO [PCM-0086373],-10.1
20,NS(=O)(=O)c1cc(Cl)c(Cl)c(S(N)(=O)=O)c1 [PCM-0086380],-4.7
21,CCC1=C(C)CN(C(=O)NCCc2ccc(S(=O)(=O)NC(=O)NC3CCC(C)CC3)cc2)C1=O (centres unmarked) [PCM-0086384],8.6
22,Nc1nc2c(c(=O)[nH]1)N(C=O)C(CNc1ccc(C(=O)N[C@@H](CCC(=O)O)C(=O)O)cc1)CN2 (some centres unmarked) [PCM-0086396],-17.9
23,O=C(O)c1cc(=O)c2c(OCC(O)COc3cccc4oc(C(=O)O)cc(=O)c34)cccc2o1 [PCM-0086401],2.6
24,COC(=O)Nc1nc2ccc(C(=O)c3ccc(F)cc3)cc2[nH]1 [PCM-0086402],-3.4
25,Nc1ccc(C(=O)NCC(=O)O)cc1 [PCM-0086407],28

# — article PMC8041284, “Tunable Methacrylamides for Covalent Ligand Directed Release Chemistry” (Journal of the American Chemical Society, 2021)
